Source: PubChem BioAssay (NCI)
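These data come from cells grown in 96-well plates and exposed to compound for 48 hours at five concentrations. Definition used: TGI = concentration required for complete inhibition of growth.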

Experiments:
Assay in all cases: inhibition of tumour cell growth, NCI panel, 48 h
MDA-MB-231 breast = tested on: MDA-MB-231 breast
MALME-3M melanoma = tested on: MALME-3M melanoma
KM12 colon = tested on: KM12 colon
OVCAR-3 ovarian = tested on: OVCAR-3 ovarian
SF-539 CNS = tested on: SF-539 CNS
HOP-92 NSCLC = tested on: HOP-92 NSCLC
CAKI-1 renal = tested on: CAKI-1 renal
EKVX NSCLC = tested on: EKVX NSCLC
NCI-H522 lung = tested on: NCI-H522 lung
UACC-257 melanoma = tested on: UACC-257 melanoma
SF-295 CNS = tested on: SF-295 CNS
MOLT-4 leukemia = tested on: MOLT-4 leukemia
SK-MEL-28 melanoma = tested on: SK-MEL-28 melanoma
RPMI-8226 leukemia = tested on: RPMI-8226 leukemia
HCC-2998 colon = tested on: HCC-2998 colon
UO-31 renal = tested on: UO-31 renal
SR leukemia = tested on: SR leukemia
SK-MEL-5 melanoma = tested on: SK-MEL-5 melanoma
PC-3 prostate = tested on: PC-3 prostate
DU-145 prostate = tested on: DU-145 prostate
786-0 renal = tested on: 786-0 renal
NCI-H460 lung = tested on: NCI-H460 lung
ACHN renal = tested on: ACHN renal
SN12C renal = tested on: SN12C renal
HT29 colon = tested on: HT29 colon
SK-MEL-2 melanoma = tested on: SK-MEL-2 melanoma
OVCAR-8 ovarian = tested on: OVCAR-8 ovarian
A498 renal = tested on: A498 renal
OVCAR-5 ovarian = tested on: OVCAR-5 ovarian
UACC-62 melanoma = tested on: UACC-62 melanoma
HOP-62 NSCLC = tested on: HOP-62 NSCLC
U251 CNS = tested on: U251 CNS
IGROV1 ovarian = tested on: IGROV1 ovarian
A549 NSCLC = tested on: A549 NSCLC
MCF7 breast = tested on: MCF7 breast
SF-268 CNS = tested on: SF-268 CNS
MDA-MB-435 = tested on: MDA-MB-435
SK-OV-3 ovarian = tested on: SK-OV-3 ovarian
NCI-H226 lung = tested on: NCI-H226 lung
TK-10 renal = tested on: TK-10 renal
LOX IMVI melanoma = tested on: LOX IMVI melanoma
BT-549 breast = tested on: BT-549 breast
NCI-H23 lung = tested on: NCI-H23 lung
OVCAR-4 ovarian = tested on: OVCAR-4 ovarian
NCI/ADR-RES ovarian = tested on: NCI/ADR-RES ovarian
SNB-75 CNS = tested on: SNB-75 CNS
M14 melanoma = tested on: M14 melanoma
K-562 leukemia = tested on: K-562 leukemia
MDA-N = tested on: MDA-N
CCRF-CEM leukemia = tested on: CCRF-CEM leukemia
SW-620 colon = tested on: SW-620 colon
HCT-15 colon = tested on: HCT-15 colon
SNB-19 CNS = tested on: SNB-19 CNS
HCT-116 colon = tested on: HCT-116 colon
COLO 205 colon = tested on: COLO 205 colon
HL-60(TB) leukemia = tested on: HL-60(TB) leukemia

Measured: TGI

CC(=O)NC(CC(C)C)C(=O)NC(CC(C)C)C(=O)NC(C=O)CCCN=C(N)N (stereo not drawn)
not listed: HL-60(TB) leukemia
> 100 µM: all other assays above

CC(C(=O)O)c1ccc(-n2nnc3c(=O)[nH][nH]c(=O)c32)cc1 (stereo not drawn)
not listed: SF-539 CNS | HOP-92 NSCLC | NCI-H522 lung | 786-0 renal | HT29 colon | A498 renal | UACC-62 melanoma | IGROV1 ovarian | SF-268 CNS | SK-OV-3 ovarian | NCI-H226 lung | SNB-75 CNS | SW-620 colon
> 100 µM: all other assays above
